Source: publication PMC12260505, “First-in-Human Phase I/IIa Study of the First-in-Class CDK2/4/6 Inhibitor PF-06873600 Alone or with Endocrine Therapy in Patients with Breast Cancer” (Clinical Cancer Research, 2025)

Experiment: Adverse events graded by NCI CTCAE version 4.03, phase I/IIa study
Type: in vivo
Experimental: Part 1 included adult patients with HR^+/HER2^− advanced breast cancer or mBC (third- or fourth-line setting), locally recurrent/advanced or metastatic TNBC, or advanced platinum-resistant epithelial ovarian cancer/fallopian tube cancer/primary peritoneal cancer who received oral PF-06873600 at doses of 1 to 50 mg twice daily or oral PF-06873600 plus ET (letrozole or fulvestrant). Primary endpoints for part 1 dose escalation determined safety and tolerability to define dose-limiting toxicities (DLT), estimate the maximum tolerated dose, and select the recommended dose for expansion (RDE). Safety endpoints included adverse events (AE) characterized by type, frequency, severity [as graded by NCI Common Terminology Criteria for Adverse Events (CTCAE) version 4.03], timing, seriousness, and relationship to study therapy. Laboratory abnormalities were characterized by type, frequency, severity (as graded by NCI CTCAE version 4.03), timing, vital sign abnormalities, and heart rate–corrected QT interval (e.g., QTcF). Secondary endpoints included PK, preliminary antitumor activity as assessed using RECIST version 1.1, time-to-event endpoints including objective response rate (ORR), duration of response (DoR), progression-free survival (PFS), time to progression (TTP), and modulation of tumor CDK biomarkers [phosphorylated Rb (pRb), Ki67]. Exploratory endpoints included molecular profiling of tumor and ctDNA and the relationship to clinical outcome.
AEs were graded by NCI CTCAE version 4.03.

[1] = Part 2A 25 mg BID IR + Fulvestrant, N = 45
[2] = Part 2C 25 mg BID IR + Fulvestrant, N = 28

## C[C@@]1(O)CCC[C@H]1n1c(=O)c(C(F)F)cc2cnc(NC3CCN(S(C)(=O)=O)CC3)nc21 [PF-06873600]
[1]
  Treatment-related TEAE, Abdominal pain, Grade 1: 7 (15.6) n (%)
  Treatment-related TEAE, Abdominal pain, Grade 2: 1 (2.2) n (%)
  Treatment-related TEAE, Abdominal pain, Grade 3/4: 0 n (%)
  Treatment-related TEAE, Abdominal pain, Grade 5: 0 n (%)
  Treatment-related TEAE, Abdominal pain, Total: 8 (17.8) n (%)
  Treatment-related TEAE, Alopecia, Grade 1: 7 (15.6) n (%)
  Treatment-related TEAE, Alopecia, Grade 2: 9 (20.0) n (%)
  Treatment-related TEAE, Alopecia, Grade 3/4: 0 n (%)
  Treatment-related TEAE, Alopecia, Grade 5: 0 n (%)
  Treatment-related TEAE, Alopecia, Total: 16 (35.6 ) n (%)
  Treatment-related TEAE, Anemia, Grade 1: 3 (6.7) n (%)
  Treatment-related TEAE, Anemia, Grade 2: 10 (22.2 ) n (%)
  Treatment-related TEAE, Anemia, Grade 3/4: 7 (15.6) n (%)
  Treatment-related TEAE, Anemia, Grade 5: 0 n (%)
  Treatment-related TEAE, Anemia, Total: 20 (44.4 ) n (%)
  Treatment-related TEAE, Any adverse event, Grade 1: 9 (20.0) n (%)
  Treatment-related TEAE, Any adverse event, Grade 2: 17 (37.8 ) n (%)
  Treatment-related TEAE, Any adverse event, Grade 3/4: 19 (42.2 ) n (%)
  Treatment-related TEAE, Any adverse event, Grade 5: 0 n (%)
  Treatment-related TEAE, Any adverse event, Total: 45 (100. 0) n (%)
  Treatment-related TEAE, Constipation, Grade 1: 4 (8.9) n (%)
  Treatment-related TEAE, Constipation, Grade 2: 5 (11.1) n (%)
  Treatment-related TEAE, Constipation, Grade 3/4: 0 n (%)
  Treatment-related TEAE, Constipation, Grade 5: 0 n (%)
  Treatment-related TEAE, Constipation, Total: 9 (20.0) n (%)
  Treatment-related TEAE, Decreased appetite, Grade 1: 6 (13.3) n (%)
  Treatment-related TEAE, Decreased appetite, Grade 2: 1 (2.2) n (%)
  Treatment-related TEAE, Decreased appetite, Grade 3/4: 0 n (%)
  Treatment-related TEAE, Decreased appetite, Grade 5: 0 n (%)
  Treatment-related TEAE, Decreased appetite, Total: 7 (15.6) n (%)
  Treatment-related TEAE, Diarrhea, Grade 1: 7 (15.6) n (%)
  Treatment-related TEAE, Diarrhea, Grade 2: 1 (2.2) n (%)
  Treatment-related TEAE, Diarrhea, Grade 3/4: 2 (4.4) n (%)
  Treatment-related TEAE, Diarrhea, Grade 5: 0 n (%)
  Treatment-related TEAE, Diarrhea, Total: 10 (22.2 ) n (%)
  Treatment-related TEAE, Dizziness, Grade 1: 6 (13.3) n (%)
  Treatment-related TEAE, Dizziness, Grade 2: 2 (4.4) n (%)
  Treatment-related TEAE, Dizziness, Grade 3/4: 0 n (%)
  Treatment-related TEAE, Dizziness, Grade 5: 0 n (%)
  Treatment-related TEAE, Dizziness, Total: 8 (17.8) n (%)
  Treatment-related TEAE, Fatigue, Grade 1: 10 (22.2 ) n (%)
  Treatment-related TEAE, Fatigue, Grade 2: 13 (28.9 ) n (%)
  Treatment-related TEAE, Fatigue, Grade 3/4: 5 (11.1) n (%)
  Treatment-related TEAE, Fatigue, Grade 5: 0 n (%)
  Treatment-related TEAE, Fatigue, Total: 28 (62.2 ) n (%)
  Treatment-related TEAE, Headache, Grade 1: 12 (26.7 ) n (%)
  Treatment-related TEAE, Headache, Grade 2: 4 (8.9) n (%)
  Treatment-related TEAE, Headache, Grade 3/4: 0 n (%)
  Treatment-related TEAE, Headache, Grade 5: 0 n (%)
  Treatment-related TEAE, Headache, Total: 16 (35.6 ) n (%)
  Treatment-related TEAE, Leukopenia, Grade 1: 1 (2.2) n (%)
  Treatment-related TEAE, Leukopenia, Grade 2: 8 (17.8) n (%)
  Treatment-related TEAE, Leukopenia, Grade 3/4: 2 (4.4) n (%)
  Treatment-related TEAE, Leukopenia, Grade 5: 0 n (%)
  Treatment-related TEAE, Leukopenia, Total: 11 (24.4 ) n (%)
  Treatment-related TEAE, Nausea, Grade 1: 22 (48.9 ) n (%)
  Treatment-related TEAE, Nausea, Grade 2: 6 (13.3) n (%)
  Treatment-related TEAE, Nausea, Grade 3/4: 1 (2.2) n (%)
  Treatment-related TEAE, Nausea, Grade 5: 0 n (%)
  Treatment-related TEAE, Nausea, Total: 29 (64.4 ) n (%)
  Treatment-related TEAE, Neutropenia, Grade 1: 4 (8.9) n (%)
  Treatment-related TEAE, Neutropenia, Grade 2: 5 (11.1) n (%)
  Treatment-related TEAE, Neutropenia, Grade 3/4: 13 (28.9 ) n (%)
  Treatment-related TEAE, Neutropenia, Grade 5: 0 n (%)
  Treatment-related TEAE, Neutropenia, Total: 22 (48.9 ) n (%)
  Treatment-related TEAE, Thrombocytopenia, Grade 1: 5 (11.1) n (%)
  Treatment-related TEAE, Thrombocytopenia, Grade 2: 2 (4.4) n (%)
  Treatment-related TEAE, Thrombocytopenia, Grade 3/4: 3 (6.7) n (%)
  Treatment-related TEAE, Thrombocytopenia, Grade 5: 0 n (%)
  Treatment-related TEAE, Thrombocytopenia, Total: 10 (22.2 ) n (%)
  Treatment-related TEAE, Vomiting, Grade 1: 12 (26.7 ) n (%)
  Treatment-related TEAE, Vomiting, Grade 2: 3 (6.7) n (%)
  Treatment-related TEAE, Vomiting, Grade 3/4: 1 (2.2) n (%)
  Treatment-related TEAE, Vomiting, Grade 5: 0 n (%)
  Treatment-related TEAE, Vomiting, Total: 16 (35.6 ) n (%)
[2]
  Treatment-related TEAE, Abdominal pain, Grade 1: 0 n (%)
  Treatment-related TEAE, Abdominal pain, Grade 2: 0 n (%)
  Treatment-related TEAE, Abdominal pain, Grade 3/4: 0 n (%)
  Treatment-related TEAE, Abdominal pain, Grade 5: 0 n (%)
  Treatment-related TEAE, Abdominal pain, Total: 0 n (%)
  Treatment-related TEAE, Alopecia, Grade 1: 6 (21.4) n (%)
  Treatment-related TEAE, Alopecia, Grade 2: 2 (7.1) n (%)
  Treatment-related TEAE, Alopecia, Grade 3/4: 0 n (%)
  Treatment-related TEAE, Alopecia, Grade 5: 0 n (%)
  Treatment-related TEAE, Alopecia, Total: 8 (28.6) n (%)
  Treatment-related TEAE, Anemia, Grade 1: 4 (14.3) n (%)
  Treatment-related TEAE, Anemia, Grade 2: 3 (10.7) n (%)
  Treatment-related TEAE, Anemia, Grade 3/4: 3 (10.7) n (%)
  Treatment-related TEAE, Anemia, Grade 5: 0 n (%)
  Treatment-related TEAE, Anemia, Total: 10 (35.7 ) n (%)
  Treatment-related TEAE, Any adverse event, Grade 1: 7 (25.0) n (%)
  Treatment-related TEAE, Any adverse event, Grade 2: 8 (28.6) n (%)
  Treatment-related TEAE, Any adverse event, Grade 3/4: 8 (28.6) n (%)
  Treatment-related TEAE, Any adverse event, Grade 5: 1 (3.6) n (%)
  Treatment-related TEAE, Any adverse event, Total: 24 (85.7 ) n (%)
  Treatment-related TEAE, Constipation, Grade 1: 1 (3.6) n (%)
  Treatment-related TEAE, Constipation, Grade 2: 2 (7.1) n (%)
  Treatment-related TEAE, Constipation, Grade 3/4: 0 n (%)
  Treatment-related TEAE, Constipation, Grade 5: 0 n (%)
  Treatment-related TEAE, Constipation, Total: 3 (10.7) n (%)
  Treatment-related TEAE, Decreased appetite, Grade 1: 2 (7.1) n (%)
  Treatment-related TEAE, Decreased appetite, Grade 2: 0 n (%)
  Treatment-related TEAE, Decreased appetite, Grade 3/4: 0 n (%)
  Treatment-related TEAE, Decreased appetite, Grade 5: 0 n (%)
  Treatment-related TEAE, Decreased appetite, Total: 2 (7.1) n (%)
  Treatment-related TEAE, Diarrhea, Grade 1: 4 (14.3) n (%)
  Treatment-related TEAE, Diarrhea, Grade 2: 1 (3.6) n (%)
  Treatment-related TEAE, Diarrhea, Grade 3/4: 0 n (%)
  Treatment-related TEAE, Diarrhea, Grade 5: 0 n (%)
  Treatment-related TEAE, Diarrhea, Total: 5 (17.9) n (%)
  Treatment-related TEAE, Dizziness, Grade 1: 0 n (%)
  Treatment-related TEAE, Dizziness, Grade 2: 1 (3.6) n (%)
  Treatment-related TEAE, Dizziness, Grade 3/4: 0 n (%)
  Treatment-related TEAE, Dizziness, Grade 5: 0 n (%)
  Treatment-related TEAE, Dizziness, Total: 1 (3.6) n (%)
  Treatment-related TEAE, Fatigue, Grade 1: 7 (25.0) n (%)
  Treatment-related TEAE, Fatigue, Grade 2: 0 n (%)
  Treatment-related TEAE, Fatigue, Grade 3/4: 2 (7.1) n (%)
  Treatment-related TEAE, Fatigue, Grade 5: 0 n (%)
  Treatment-related TEAE, Fatigue, Total: 9 (32.1) n (%)
  Treatment-related TEAE, Headache, Grade 1: 9 (32.1) n (%)
  Treatment-related TEAE, Headache, Grade 2: 0 n (%)
